Like-named read-outs stand apart in the source and are kept apart here.
Molecular target: T1, human GnRH receptor (Homo sapiens, UniProt P30968)
T1 construct: expressed in transfected cells; host or cells: HEK 293 (hGnRH-R/293, from Dr. Stuart Sealfon)
T1 sequence (P30968 1-328): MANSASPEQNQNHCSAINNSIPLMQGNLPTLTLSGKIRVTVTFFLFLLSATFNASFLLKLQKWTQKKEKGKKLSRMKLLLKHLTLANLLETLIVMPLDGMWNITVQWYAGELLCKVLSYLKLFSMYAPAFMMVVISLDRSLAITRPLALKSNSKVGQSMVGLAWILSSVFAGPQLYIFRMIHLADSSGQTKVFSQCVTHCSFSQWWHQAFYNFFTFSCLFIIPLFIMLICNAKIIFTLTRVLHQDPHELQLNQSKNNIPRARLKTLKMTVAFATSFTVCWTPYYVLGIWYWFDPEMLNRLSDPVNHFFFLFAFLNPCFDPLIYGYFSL
Assay: Radioligand binding, 125I-GnRH-A displacement, membranes of HEK 293 cells with human GnRH receptor
Details: for remaining activity at 10 µM / remaining activity at 1 µM: substrate remaining, closer to zero = closer to 100% inhibition; for remaining activity at 10 µM: 10 uM compound, read-out: S%R 10 uM hGnRHR; for IC50: read-out: hGnRH IC50; for remaining activity at 1 µM: 1 uM compound, read-out: S%R 1 uM hGnRHR
Method: All compounds were diluted in 1% DMSO (final assay concentration) in binding assay buffer. […] Reactions were terminated by rapid filtration onto 96-well Packard GF/C filters soaked in 0.1% polyethyleneimine. Filters were washed three times with PBS buffer, dried and counted on a Packard Topcount by liquid scintillation counting.
Assay conditions were identical for assessing compound activities at other species. […] IC50 values for control peptides and test compounds were calculated utilizing GraphPad Prism™ software.
Crude compounds were tested using the competitive radioligand binding assay described above.
The reaction mixture was vortexed and incubated for 1 min at room temperature. After one min, the mixture was vortexed and allowed to incubate for an additional minute. 2 ml of 0.5 M acetic acid/1% BSA was added to the reaction tube and the mixture was added to a C18 Sep-Pak cartridge. The cartridge was washed with subsequent washes of 5 ml H2O and 5 ml 0.5M acetic acid and then eluted with 5×1 ml of 60% CH3CN/40% 0.5M acetic acid. The eluate was diluted with 3× volume of HPLC buffer A (0.1% TFA in H2O) and loaded onto a C18 column. The iodinated product was eluted over 20-25 min with a gradient of 25-100% CH3CN containing 0.1% TFA. The radioactive fractions (750 ed/fraction) are collected into clean polypropylene tubes containing 100 μl of 10% BSA. Fractions were assessed for biological activity by radioligand binding.
S%R is the substrate remaining.

[1] = 1 uM, read-out: % Inhib. @ 1 uM hGnRH
[2] = 1 h, repeat of % Inhib. at 1 uM, read-out: Repeats @ 1 uM hGnRH

Row | SMILES | inhibition at 1 µM [1] [%] | inhibition at 1 µM [2] [%] | other results
1 | COC(=O)c1ccc(OC)c(NC(=O)c2ccc(Cc3cc4c(cc3C)C(C)(C)CCC4(C)C)o2)c1 [Compound 361] |  |  | remaining activity at 10 µM (1 h): 4%
2 | Cc1cc2c(cc1Cc1ccc(C(=O)NCC3CCC(C(=O)O)CC3)o1)C(C)(C)CCC2(C)C (stereo not shown) [drawing 1024] | 66 | 76 | 
3 | Cc1cc2c(cc1Cc1ccc(C(=O)Nc3cccc(CO)c3)o1)C(C)(C)CCC2(C)C [Compound 322] |  |  | remaining activity at 10 µM (1 h): 4%
4 | COc1cc(OC)c(NC(=O)c2ccc(Cc3cc(C(=O)C(C)(C)C)c(OC)cc3OC)o2)c(OC)c1 [Compound 229] |  |  | IC50: 250 nM
5 | COc1cc(OC)nc(NCC2CCC(CNC(=O)c3ccc(Cc4cc5c(cc4C)C(C)(C)CCC5(C)C)o3)CC2)n1 (stereo not shown) [Compound 71] |  |  | IC50: 2000 nM
6 | Cc1cc2c(cc1Cc1ccc(C(=O)Nc3ccc4c(=O)[nH][nH]c(=O)c4c3)o1)C(C)(C)CCC2(C)C [Compound 377] |  |  | remaining activity at 10 µM (1 h): 39%
7 | Cc1cc2c(cc1Cc1ccc(C(=O)N(CCc3ccccc3)Cc3ccccc3O)o1)C(C)(C)CCC2(C)C | -20 | -30 | 
8 | Cc1cc2c(cc1Cc1ccc(C(=O)Nc3ncccc3O)o1)C(C)(C)CCC2(C)C [Compound 369] |  |  | remaining activity at 10 µM (1 h): 11%
9 | Cc1cc2c(cc1Cc1ccc(C(=O)Nc3cccc(O)c3)o1)C(C)(C)CCC2(C)C [Compound 345] |  |  | remaining activity at 10 µM (1 h): 40%
10 | Cc1cc2c(cc1Cc1ccc(C(=O)NCCC3OCCO3)o1)C(C)(C)CCC2(C)C [Compound 133] |  |  | IC50: 490 nM
11 | Cc1cc2c(cc1Cc1ccc(C(=O)NCc3cccc(CNc4ncc(F)c(N)n4)c3)o1)C(C)(C)CCC2(C)C [Compound 157] |  |  | IC50: 620 nM
12 | CNCCCNC(=O)c1ccc(Cc2cc3c(cc2C)C(C)(C)CCC3(C)C)o1 [drawing 1027] | -22 | -25 | 
13 | Cc1cc2c(cc1Cc1ccc(C(=O)NCc3cccc(Cl)c3)o1)C(C)(C)CCC2(C)C [Compound 427] |  |  | remaining activity at 1 µM (1 h): 20%
14 | Cc1cc2c(cc1Cc1ccc(C(=O)NCc3c(CO)cnc(C)c3O)o1)C(C)(C)CCC2(C)C | -2 | 6 | 
15 | Cc1cc2c(cc1Cc1ccc(C(=O)N(CCCO)Cc3ccccn3)o1)C(C)(C)CCC2(C)C [Compound 214] |  |  | IC50: > 10000 nM
16 | Cc1cc2c(cc1Cc1ccc(C(=O)NCCCNC(=O)c3ccc(Cc4cc5c(cc4C)C(C)(C)CCC5(C)C)o3)o1)C(C)(C)C=CC2(C)C [Compound 27] |  |  | IC50: > 10000 nM
17 | COc1cc(CNC(=O)c2ccc(Cc3cc4c(cc3C)C(C)(C)CCC4(C)C)o2)ccc1O [drawing 1222] | 54 | 54 | 
18 | COC(=O)c1cc(OC)c(OC)c(OO)c1NC(=O)c1ccc(Cc2cc3c(cc2C)C(C)(C)CCC3(C)C)o1 [Compound 386] |  |  | remaining activity at 10 µM (1 h): 27%
19 | Cc1cc2c(cc1Cc1ccc(C(=O)NCCNc3ccccc3)o1)C(C)(C)CCC2(C)C [Compound 406] |  |  | remaining activity at 1 µM (1 h): 30%
20 | Cc1cc2c(cc1Cc1ccc(C(=O)NCc3ccc(N(C)C)cc3)o1)C(C)(C)CCC2(C)C [drawing 1220] | 78 | 85 | 

Row | SMILES | inhibition at 1 µM [1] [%] | inhibition at 1 µM [2] [%] | other results
21 | Cc1cc2c(cc1Cc1ccc(C(=O)NN3C(=O)c4ccccc4C3=O)o1)C(C)(C)CCC2(C)C |  |  | inhibition at 10 µM (repeat, read-out: Repeats @ 10 uM hGnRH (% inhib.)): -20%; inhibition at 10 µM (read-out: % inhib. @ 10 uM hGnRH): -15%
22 | Cc1cc2c(cc1Cc1ccc(C(=O)NC3CCN(c4nccc(NCC5CCCO5)n4)C3)o1)C(C)(C)CCC2(C)C (stereo not shown) [drawing 1036] | -12 | 0 | 
23 | Cc1cc2c(cc1Cc1ccc(C(=O)NCc3cccc(CNc4nccc(C(F)(F)F)n4)c3)o1)C(C)(C)CCC2(C)C [Compound 143] |  |  | IC50: 1870 nM
24 | Cc1cc2c(cc1Cc1ccc(C(=O)NC3O[C@H](COC(=O)C(C)(C)C)[C@H](OC(=O)C(C)(C)C)[C@H](NC(=O)C(C)(C)C)[C@H]3OC(=O)C(C)(C)C)o1)C(C)(C)CCC2(C)C (stereo partly shown) [Compound 175] |  |  | IC50: > 10000 nM
25 | Cc1cc2c(cc1Cc1ccc(C(=O)Nc3ccccc3)o1)C(C)(C)CCC2(C)C [Compound 195] |  |  | insolubility remark in hGnRH IC50 cell (binding assay conditions): Insol. >3 uM; IC50: 320 nM
26 | COc1ccc(C(=O)CNC(=O)c2ccc(Cc3cc4c(cc3C)C(C)(C)CCC4(C)C)o2)cc1 [drawing 1056] | 21 | 23 | 
27 | COCCNC(=O)c1ccc(Cc2cc3c(cc2C)C(C)(C)CCC3(C)C)o1 [drawing 1155] | 55 | 61 | 
28 | Cc1cc2c(cc1Cc1ccc(C(=O)N(Cc3ccccc3)Cc3ccccc3)o1)C(C)(C)CCC2(C)C | -2 | 3 | 
29 | COc1cc(OC)c(NC(=O)c2ccc(Cc3cc4c(cc3C(C)C)C(C)(C)CCC4(C)C)o2)c(OC)c1 [Compound 171] |  |  | IC50: 1140 nM
30 | Cc1cc2c(cc1Cc1ccc(C(=O)NC(c3ccccc3)c3ccccc3)o1)C(C)(C)CCC2(C)C [drawing 1071] |  |  | % Inhib. @ 1 uM hGnRH (1 uM): −6%; Repeats @ 1 uM hGnRH (repeat of % Inhib. at 1 uM): 2
31 | CCN(Cc1ccncc1)C(=O)c1ccc(Cc2cc3c(cc2C)C(C)(C)CCC3(C)C)o1 | 10 | 2 | 
32 | Cc1cc2c(cc1Cc1ccc(C(=O)NCc3ccc(CN(C)C)cc3)o1)C(C)(C)CCC2(C)C [Compound 166] |  |  | IC50: 260 nM
33 | COc1cc(C)c(Cl)c(C)c1Cc1ccc(C(N)=O)o1 [AXC- 07450] |  |  | IC50: > 10000 nM
34 | Cc1cc2c(cc1Cc1ccc(C(=O)NCc3cccc([N+](=O)[O-])c3)o1)C(C)(C)CCC2(C)C [Compound 451] |  |  | remaining activity at 1 µM (1 h): 24%
35 | Cc1cc2c(cc1Cc1ccc(C(=O)NC(CO)Cc3ccccc3)o1)C(C)(C)CCC2(C)C (stereo not shown) [drawing 1117] |  |  | % Inhib. @ 1 uM hGnRH (1 uM): 72%; Repeats @ 1 uM hGnRH (repeat of % Inhib. at 1 uM): 72
36 | Cc1cc2c(cc1Cc1ccc(C(=O)Nc3ccc(S(=O)(=O)Nc4nccs4)cc3)o1)C(C)(C)CCC2(C)C [Compound 29] |  |  | IC50: 1420 nM
37 | Cc1cc2c(cc1Cc1ccc(C(=O)N3CCN(c4ncccn4)CC3)o1)C(C)(C)CCC2(C)C [Compound 30.5] |  |  | IC50: 5030 nM
38 | COc1ccc(CNC(=O)c2ccc(Cc3cc4c(cc3C)C(C)(C)CCC4(C)C)o2)cc1 [Compound 414] |  |  | remaining activity at 1 µM (1 h): 10%
39 | Cc1cc2c(cc1Cc1ccc(C(=O)NCC(c3ccccc3)c3ccccc3)o1)C(C)(C)CCC2(C)C | -21 | -26 | 
40 | Cc1cc2c(cc1Cc1ccc(C(=O)NC(C)c3ccccc3)o1)C(C)(C)CCC2(C)C (stereo not shown) [Compound 428] |  |  | remaining activity at 1 µM (1 h): 46%

The next lines start with results.

Row | inhibition at 1 µM [1] [%] | inhibition at 1 µM [2] [%] | SMILES | other results
41 | 59 | 62 | Cc1cc2c(cc1Cc1ccc(C(=O)NCCc3cccc(F)c3)o1)C(C)(C)CCC2(C)C [drawing 1181] | 
42 | -1 | -3 | Cc1cc2c(cc1Cc1ccc(C(=O)N3CCN(c4cccc(O)c4)CC3)o1)C(C)(C)CCC2(C)C | 
43 | 26 | 34 | Cc1cc2c(cc1Cc1ccc(C(=O)NCc3cc(Cl)ccc3Cl)o1)C(C)(C)CCC2(C)C | 
44 | 26 | 87 | Cc1cc2c(cc1Cc1ccc(C(=O)NCC3CCN(C(=N)N)CC3)o1)C(C)(C)CCC2(C)C [drawing 1063] | 
45 | 24 | 3 | Cc1cc2c(cc1Cc1ccc(C(=O)N3CCN(c4ccccc4F)CC3)o1)C(C)(C)CCC2(C)C | 
46 | 61 | 70 | COc1ccccc1CCNC(=O)c1ccc(Cc2cc3c(cc2C)C(C)(C)CCC3(C)C)o1 [drawing 1114] | 
47 | 21 | 22 | Cc1cc2c(cc1Cc1ccc(C(=O)NC(C)(C)Cc3ccc(F)cc3)o1)C(C)(C)CCC2(C)C | 
48 | 49 | 50 | COc1cccc(CCNC(=O)c2ccc(Cc3cc4c(cc3C)C(C)(C)CCC4(C)C)o2)c1 [drawing 994] | 
49 | 59 | 66 | CC(=O)C1CCN(C(=O)c2ccc(Cc3cc4c(cc3C)C(C)(C)CCC4(C)C)o2)CC1 | 
50 | 69 | 74 | Cc1cc2c(cc1Cc1ccc(C(=O)NCc3cccnc3)o1)C(C)(C)CCC2(C)C [drawing 1067] | 
51 | 62 | 68 | Cc1cc2c(cc1Cc1ccc(C(=O)NCc3cccc(Br)c3)o1)C(C)(C)CCC2(C)C [drawing 1235] | 
52 | -18 | 5 | Cc1cc2c(cc1Cc1ccc(C(=O)NCCSc3cc(C(F)(F)F)nc4ccccc34)o1)C(C)(C)CCC2(C)C | 
53 | 32 | 44 | Cc1cc2c(cc1Cc1ccc(C(=O)NCCN3CCNC3=O)o1)C(C)(C)CCC2(C)C [drawing 1041] | 
